Results on 7 cell lines are retold here after the supplement of paper PMC10307832.

What all share (assay): relative viability (nuclei count vs DMSO), 5 days (fraction); higher = more cells survive
Compound in the assay “MK-2206 + Pemetrexed”: NC1(c2ccc(-c3nc4ccn5c(=O)[nH]nc5c4cc3-c3ccccc3)cc2)CCC1 [MK-2206] + Nc1nc2[nH]cc(CCc3ccc(C(=O)N[C@@H](CCC(=O)O)C(=O)O)cc3)c2c(=O)[nH]1 [Pemetrexed] (partner 0.2 µM)
Summed up: (§1)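 Lung cancer cell lines in 1536-well plates got either a single drug or a fixed anchor-drug dose together with five library-drug doses (not always all listed) in √10 steps, by pin tool, on the day after seeding. Nuclei were counted after 5 days, and relative viability is the treated-to-vehicle ratio of nuclei counts. Values are medians of duplicate plates.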

Compound in the assay “Pictilisib + Luminespib”: CS(=O)(=O)N1CCN(Cc2cc3nc(-c4cccc5[nH]ncc45)nc(N4CCOCC4)c3s2)CC1 [Pictilisib] + CCNC(=O)c1noc(-c2cc(C(C)C)c(O)cc2O)c1-c1ccc(CN2CCOCC2)cc1 [Luminespib] (partner 0.01 µM)
In a few lines:
as §1

Compound in the assay “Pictilisib + Navitoclax”: CS(=O)(=O)N1CCN(Cc2cc3nc(-c4cccc5[nH]ncc45)nc(N4CCOCC4)c3s2)CC1 [Pictilisib] + CC1(C)CCC(c2ccc(Cl)cc2)=C(CN2CCN(c3ccc(C(=O)NS(=O)(=O)c4ccc(N[C@H](CCN5CCOCC5)CSc5ccccc5)c(S(=O)(=O)C(F)(F)F)c4)cc3)CC2)C1 [Navitoclax] (partner 0.5 µM)
Summed up: as §1

Compound in the assay “Pictilisib + Vorinostat”: CS(=O)(=O)N1CCN(Cc2cc3nc(-c4cccc5[nH]ncc45)nc(N4CCOCC4)c3s2)CC1 [Pictilisib] + O=C(CCCCCCC(=O)Nc1ccccc1)NO [Vorinostat] (partner 1 µM)
In a few lines: as §1

Compound in another assay: NC1(c2ccc(-c3nc4ccn5c(=O)[nH]nc5c4cc3-c3ccccc3)cc2)CCC1 [MK-2206]
In a few lines:
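Viability here means nuclei in treated wells divided by nuclei in vehicle wells, reported as the median across plates. Only plates with control CV below 25% and at least one doubling passed. Lung cancer cell lines in 1536-well plates were exposed to five √10-spaced library-drug doses for 5 days and counted from 4× Hoechst images in MetaXpress.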

As for NCI-H1395, the relative viability came out at 0.807 with MK-2206 + Pemetrexed (first compound 0.01 µM); 0.869 with MK-2206 + Pemetrexed (first compound 0.03162 µM); 0.79 with MK-2206 + Pemetrexed (first compound 0.3162 µM); 0.812 with MK-2206 + Pemetrexed (first compound 1 µM); 0.704 in the assay with Pictilisib + Luminespib (first compound 0.02 µM); 0.838 with Pictilisib + Luminespib (first compound 0.06325 µM). In addition, the relative viability with Pictilisib + Luminespib (first compound 0.6325 µM) came out at 0.748; with Pictilisib + Luminespib (first compound 2 µM), 0.534; with Pictilisib + Navitoclax (first compound 0.02 µM) it was 1.17; with Pictilisib + Navitoclax (first compound 0.06325 µM), 1.27; in the assay with Pictilisib + Navitoclax (first compound 0.6325 µM), 0.99; in the assay with Pictilisib + Navitoclax (first compound 2 µM) it was 0.6. The relative viability in the assay with Pictilisib + Vorinostat (first compound 0.02 µM) was determined as 1.08; in the assay with Pictilisib + Vorinostat (first compound 0.06325 µM), 0.727; with Pictilisib + Vorinostat (first compound 0.6325 µM) it was 0.498; with Pictilisib + Vorinostat (first compound 2 µM), 0.369; with MK-2206 (0.01 µM), 1; with MK-2206 (0.03162 µM), 0.91. The relative viability with MK-2206 (0.3162 µM) was determined as 0.701; in the assay with MK-2206 (1 µM) it was 0.793.
With COR-L23, the relative viability with MK-2206 + Pemetrexed (first compound 0.01 µM) came to 0.184; in the assay with MK-2206 + Pemetrexed (first compound 0.03162 µM), 0.187; in the assay with MK-2206 + Pemetrexed (first compound 0.3162 µM), 0.195; in the assay with MK-2206 + Pemetrexed (first compound 1 µM) it was 0.172; with Pictilisib + Luminespib (first compound 0.02 µM) it was 0.768; with Pictilisib + Luminespib (first compound 0.06325 µM), 0.808. Further, the relative viability with Pictilisib + Luminespib (first compound 0.6325 µM) amounted to 0.562; with Pictilisib + Luminespib (first compound 2 µM), 0.442; with Pictilisib + Navitoclax (first compound 0.02 µM), 1.1; in the assay with Pictilisib + Navitoclax (first compound 0.06325 µM), 1.15; with Pictilisib + Navitoclax (first compound 0.6325 µM), 0.949; with Pictilisib + Navitoclax (first compound 2 µM) it was 0.561. In addition, the relative viability is 0.491 in the assay with Pictilisib + Vorinostat (first compound 0.02 µM); 0.407 in the assay with Pictilisib + Vorinostat (first compound 0.06325 µM); 0.386 with Pictilisib + Vorinostat (first compound 0.6325 µM); 0.286 with Pictilisib + Vorinostat (first compound 2 µM); 1.01 in the assay with MK-2206 (0.01 µM); 1.05 in the assay with MK-2206 (0.03162 µM). Moreover, the relative viability was 1.03 with MK-2206 (0.3162 µM) and 0.99 with MK-2206 (1 µM).
For EMC-BAC-2, the relative viability in the assay with MK-2206 + Pemetrexed (first compound 0.01 µM) turned out to be 0.435; with MK-2206 + Pemetrexed (first compound 0.03162 µM), 0.377; with MK-2206 + Pemetrexed (first compound 0.3162 µM), 0.439; in the assay with MK-2206 + Pemetrexed (first compound 1 µM), 0.407; with Pictilisib + Luminespib (first compound 0.02 µM) it was 1.23; with Pictilisib + Luminespib (first compound 0.06325 µM), 0.945. The relative viability was found to be 0.926 with Pictilisib + Luminespib (first compound 0.6325 µM); 0.656 with Pictilisib + Luminespib (first compound 2 µM); 1.1 with Pictilisib + Navitoclax (first compound 0.02 µM); 1.14 in the assay with Pictilisib + Navitoclax (first compound 0.06325 µM); 1.07 in the assay with Pictilisib + Navitoclax (first compound 0.6325 µM); 0.649 with Pictilisib + Navitoclax (first compound 2 µM). Further, the relative viability with Pictilisib + Vorinostat (first compound 0.02 µM) turned out to be 0.88; in the assay with Pictilisib + Vorinostat (first compound 0.06325 µM), 0.615; with Pictilisib + Vorinostat (first compound 0.6325 µM) it was 0.337; with Pictilisib + Vorinostat (first compound 2 µM) it was 0.286; with MK-2206 (0.01 µM), 0.95; with MK-2206 (0.03162 µM), 0.959. The relative viability was 0.926 with MK-2206 (0.3162 µM) and 0.871 in the assay with MK-2206 (1 µM).
Take NCI-H1355: the relative viability came out at 1.04 in the assay with MK-2206 + Pemetrexed (first compound 0.01 µM); 1.02 with MK-2206 + Pemetrexed (first compound 0.03162 µM); 1.02 in the assay with MK-2206 + Pemetrexed (first compound 0.3162 µM); 1.04 in the assay with MK-2206 + Pemetrexed (first compound 1 µM); 0.731 with Pictilisib + Luminespib (first compound 0.02 µM); 0.593 with Pictilisib + Luminespib (first compound 0.06325 µM). In addition, the relative viability was 0.582 with Pictilisib + Luminespib (first compound 0.6325 µM); 0.272 with Pictilisib + Luminespib (first compound 2 µM); 0.941 with Pictilisib + Navitoclax (first compound 0.02 µM); 0.902 with Pictilisib + Navitoclax (first compound 0.06325 µM); 0.828 in the assay with Pictilisib + Navitoclax (first compound 0.6325 µM); 0.501 with Pictilisib + Navitoclax (first compound 2 µM). In addition, the relative viability amounted to 0.62 with Pictilisib + Vorinostat (first compound 0.02 µM); 0.624 in the assay with Pictilisib + Vorinostat (first compound 0.06325 µM); 0.589 with Pictilisib + Vorinostat (first compound 0.6325 µM); 0.257 with Pictilisib + Vorinostat (first compound 2 µM); 0.977 with MK-2206 (0.01 µM); 0.997 with MK-2206 (0.03162 µM). The relative viability in the assay with MK-2206 (0.3162 µM) is 0.9; with MK-2206 (1 µM), 0.788.
Take NCI-H1944: the relative viability was 0.612 in the assay with MK-2206 + Pemetrexed (first compound 0.01 µM); 0.575 with MK-2206 + Pemetrexed (first compound 0.03162 µM); 0.603 in the assay with MK-2206 + Pemetrexed (first compound 0.3162 µM); 0.576 with MK-2206 + Pemetrexed (first compound 1 µM); 0.768 in the assay with Pictilisib + Luminespib (first compound 0.02 µM); 0.46 with Pictilisib + Luminespib (first compound 0.06325 µM). The relative viability in the assay with Pictilisib + Luminespib (first compound 0.6325 µM) was found to be 0.498; with Pictilisib + Luminespib (first compound 2 µM), 0.239; with Pictilisib + Navitoclax (first compound 0.02 µM) it was 1.04; in the assay with Pictilisib + Navitoclax (first compound 0.06325 µM), 0.99; with Pictilisib + Navitoclax (first compound 0.6325 µM), 0.974; in the assay with Pictilisib + Navitoclax (first compound 2 µM), 0.394. Also, the relative viability in the assay with Pictilisib + Vorinostat (first compound 0.02 µM) was found to be 0.61; with Pictilisib + Vorinostat (first compound 0.06325 µM) it was 0.494; in the assay with Pictilisib + Vorinostat (first compound 0.6325 µM), 0.375; in the assay with Pictilisib + Vorinostat (first compound 2 µM) it was 0.201; with MK-2206 (0.01 µM), 1.03; with MK-2206 (0.03162 µM) it was 1.01. Moreover, the relative viability was found to be 0.965 in the assay with MK-2206 (0.3162 µM) and 0.987 with MK-2206 (1 µM).
In the case of HOP-62, the relative viability with MK-2206 + Pemetrexed (first compound 0.01 µM) came to 0.381; with MK-2206 + Pemetrexed (first compound 0.03162 µM), 0.272; with MK-2206 + Pemetrexed (first compound 0.3162 µM), 0.273; in the assay with MK-2206 + Pemetrexed (first compound 1 µM) it was 0.375; with Pictilisib + Luminespib (first compound 0.02 µM), 1.01; with Pictilisib + Luminespib (first compound 0.06325 µM) it was 0.906. For the same cell line, the relative viability with Pictilisib + Luminespib (first compound 0.6325 µM) amounted to 0.803; with Pictilisib + Luminespib (first compound 2 µM) it was 0.874; with Pictilisib + Navitoclax (first compound 0.02 µM), 0.955; in the assay with Pictilisib + Navitoclax (first compound 0.06325 µM), 1.1; with Pictilisib + Navitoclax (first compound 0.6325 µM), 1.06; with Pictilisib + Navitoclax (first compound 2 µM), 1.01. Further, the relative viability was determined as 0.676 with Pictilisib + Vorinostat (first compound 0.02 µM); 0.573 with Pictilisib + Vorinostat (first compound 0.06325 µM); 0.566 with Pictilisib + Vorinostat (first compound 0.6325 µM); 0.348 with Pictilisib + Vorinostat (first compound 2 µM); 0.91 in the assay with MK-2206 (0.01 µM); 1.08 in the assay with MK-2206 (0.03162 µM). In addition, the figures for the relative viability with MK-2206 (0.3162 µM) and with MK-2206 (1 µM) were 0.993 and 0.918, respectively.
NCI-H2009: the relative viability in the assay with MK-2206 + Pemetrexed (first compound 0.01 µM) stood at 1.05; with MK-2206 + Pemetrexed (first compound 0.03162 µM) it was 1.01; with MK-2206 + Pemetrexed (first compound 0.3162 µM), 1.05; with MK-2206 + Pemetrexed (first compound 1 µM), 1.03; with Pictilisib + Luminespib (first compound 0.02 µM), 1.01; in the assay with Pictilisib + Luminespib (first compound 0.06325 µM), 1.05. Besides, the relative viability with Pictilisib + Luminespib (first compound 0.6325 µM) was determined as 1.04; in the assay with Pictilisib + Luminespib (first compound 2 µM), 0.773; in the assay with Pictilisib + Navitoclax (first compound 0.02 µM), 1.16; with Pictilisib + Navitoclax (first compound 0.06325 µM) it was 1.19; with Pictilisib + Navitoclax (first compound 0.6325 µM), 1.15; in the assay with Pictilisib + Navitoclax (first compound 2 µM), 0.958. Further, the relative viability with Pictilisib + Vorinostat (first compound 0.02 µM) was 0.766; in the assay with Pictilisib + Vorinostat (first compound 0.06325 µM), 0.723; with Pictilisib + Vorinostat (first compound 0.6325 µM) it was 0.645; in the assay with Pictilisib + Vorinostat (first compound 2 µM), 0.5; in the assay with MK-2206 (0.01 µM) it was 0.97; with MK-2206 (0.03162 µM), 1.04. The relative viability with MK-2206 (0.3162 µM) was 1.02; with MK-2206 (1 µM), 0.993.
